Data taken from patent publication US6649609B2, “Benzimidazole derivatives and pharmaceutical compositions comprising these compounds” (Neurosearch A/S, priority 1999, dated 2003).
Structures can show the parent of a compound that is named as a salt.

Columns and labels:
[1] = target: benzodiazepine receptor (GABAA receptor complex), cerebral cortex membranes; test: In vitro inhibition of 3H-flunitrazepam (3H-FNM) binding; conditions: inhibition of specific 3H-FNM (1 nM) binding, rat cerebral cortex membranes
Protocol: The GABA recognition site and the benzodiazepine modulatory unit can selectively be labelled with ^3H-muscimol and ^3H-flunitrazepam, respectively.
13A: In vitro inhibition of ^3H-flunitrazepam (^3H-FNM) binding
Preparations are performed at 0-4° C. unless otherwise indicated. Cerebral cortex from male Wistar rats (150-200 g) is homogenised for 5-10 sec in 20 ml Tris-HCl (30 mM, pH 7.4) using an Ultra-Turrax homogeniser. The suspension is centrifuged at 27,000× g for 15 min and the pellet is washed three times with buffer (centrifuged at 27,000× g for 10 min). The washed pellet is homogenized in 20 ml of buffer and incubated on a water bath (37° C.) for 30 min to remove endogenous GABA and then centrifuged for 10 min at 27,000× g. The pellet is then homogenized in buffer and centrifuged for 10 min at 27,000× g. The final pellet is resuspended in 30 ml buffer and the preparation is frozen and stored at −20° C.
The membrane preparation is thawed and centrifuged at 2° C. for 10 min at 27,000× g. The pellet is washed twice with 20 ml 50 mM Tris-citrate, pH 7.1 using an Ultra-Turrax homogeniser and centrifuged for 10 min at 27,000× g. The final pellet is resuspended in 50 mM Tris-citrate, pH 7.1 (500 ml buffer per g of original tissue), and then used for binding assays. Aliquots of 0.5 ml tissue are added to 25 μl of test solution and 25 μl of ^3H-FNM (1 nM, final concentration), mixed and incubated for 40 min at 2° C., Non-specific binding is determined using Clonazepam (1 μM, final concentration). After incubation the samples are added 5 ml of ice-cold buffer and poured directly onto Whatman GFIC glass fibre filters under suction and immediately washed with 5 ml ice-cold buffer. The amount of radioactivity on the filters is determined by conventional liquid scintillation counting. Specific binding is total binding minus non-specific binding.
The test value will be given as IC50 (the concentration (μM) of the test substance which inhibits the specific binding of ^3H-FNM by 50%). [formula]
Co is specific binding in control assays, and
Cx is the specific binding in the test assay.
(The calculations assume normal mass-action kinetics).

[2] = test system: GABAA receptor-ion channel complex (forebrain); test: In vivo inhibition of 3H-FNM binding; set-up: species or system mouse; conditions: female NMRI mice, test substance i.v., inhibition of specific [3H]FNM binding in forebrain
Protocol: 13B: In vivo inhibition of ^3H-FNM binding
[^3H]FNM can also be used for in vivo receptor labelling studies in mouse. Accumulation of [^3H]FNM binding will occur all over the brain as GABAA receptors are widely distributed.
All test substances used are solutions prepared in 10% TWEEN 80. Groups of three female NMRI mice (25 g) are injected i.v. via the tail vein with 5.0 μCi of [3H]FNM in 0.2 ml saline. Fifteen min after injection with [^3H]FNM the test substance is administered i.v. Twenty min after injection with [^3H]FNM, mice are killed by decapitation, the forebrains rapidly excised and homogenized in 12 ml of ice-cold 50 mM Tris-citrate, pH 7.1 using an Ultra-Turrax homogenizer. Three aliquots of 1 ml are immediately filtered through GF/C glass fibre filters and washed with 2×5 ml of ice-cold buffer. The amounts of radioactivity on the filters and in 200 μl of the homogenate are determined by conventional scintillation counting. Groups of untreated mice serves as controls. To determine non-specific binding groups of mice are injected with Clonazepam (25 mg/kg) i.p. 10 min before [3H]FNM injection. Specific binding is the amount of binding in controls minus the amount of binding in Clonazepam treated mice.
The ED50 value is determined from dose response curves. […] [formula]
where Co is specific binding in controls and Cx is the specific binding in mice treated with test substance.

[3] = test system: clonic convulsions induced by pentylenetetrazol (PTZ); test: PTZ clonic convulsions; type: in vivo; conditions: female NMRI mice; for ED100: i.v., dose increasing the PTZ threshold to 100 mg PTZ/kg (linear regression); for ptz threshold at 30 mg/kg: test substance 30 mg/kg i.v., PTZ infused after 5 min, vehicle threshold 37-39 mg PTZ/kg
Protocol: The purpose of this test is to show antagonism of clonic convulsions induced by pentylenetetrazol (PTZ). PTZ induces clonic convulsions in mice after i.v. infusion. Antagonism of PTZ-induced convulsions is a measure for the agonistic character of ligands for the benzodiazepine recognition site.
Female NMRI mice (Bomholdtgaard, Ry), 20 g, 6 mice in each group are administered i.v. with vehicle or test substance. After five minutes the PTZ-solution is infused intravenously at a speed of 0.7 ml/minute through a cannula placed in the tail vein. The time from initiation of the infusion to appearance of clonic convulsions is recorded.
The dose of PTZ required for inducing convulsion in each mouse is calculated as PTZ/kg body weight. Means ±sd for each experimental group of 6 mice is calculated. ED100 is calculated by linear regression expressing the dose increasing the PTZ threshold to 100 mg PTZ/kg.
The threshold of vehicle treated controls is in the range of 37-39 mg PTZ/kg. As a control in each series of experiments PTZ is infused into 6 vehicle treated mice.

| Structure (SMILES) | melting point | also measured |
| --- | --- | --- |
| COCCOC(=O)c1ccc2c(c1)ncn2-c1cccc(N2CCN(CC(=O)O)CC2)c1 | 105 to 110 °C |  |
| CSCCOC(=O)c1ccc2c(c1)ncn2-c1cccc(N2CCN(C)CC2)c1 | 121 to 122 °C |  |
| CN(C)CCOC(=O)c1ccc2c(c1)ncn2-c1cccc(N2CCN(CC(=O)O)CC2)c1 | 47 °C (dec.) |  |
| COC(=O)c1ccc2c(c1)ncn2-c1cccc(N2CCN(CC#N)CC2)c1 | 160 to 162 °C |  |
| COCCOC(=O)c1ccc2c(c1)ncn2-c1cccc(N2CCN(CC#N)CC2)c1 | 91 to 93 °C |  |
| O=C(OCCO)c1ccc2c(c1)ncn2-c1cccc(N2CCN(CCO)CC2)c1 (as salt: HCl) | 182 to 192 °C |  |
| COCCOC(=O)c1ccc2c(c1)ncn2-c1cccc(C2CCN(C(C)=O)CC2)c1 (as salt: HCl) | 139 to 140 °C |  |
| COCCOC(=O)c1ccc2c(c1)ncn2-c1cccc(N2CCN(CC(=O)OC(C)C)CC2)c1 (as salt: HCl) | 155 to 159 °C |  |
| CN1CCN(c2cccc(-n3cnc4cc(C(=O)OCCO)ccc43)c2)CC1 (as salt: HCl) | 128 to 139 °C |  |
| CCOC(=O)CN1CCN(c2cccc(-n3cnc4cc(C(=O)OCCO)ccc43)c2)CC1 (as salt: HCl) | 103 to 125 °C |  |
| CCN(CC)C(=O)CN1CCN(c2cccc(-n3cnc4cc(C(=O)OCCOC)ccc43)c2)CC1 (as salt: HCl) | 202 to 204 °C |  |
| COCCOC(=O)c1ccc2c(c1)ncn2-c1cccc(N2CCN(CC(N)=O)CC2)c1 (as salt: HCl) | 211 to 212 °C |  |
| CCN(CC)C(=O)CN1CCN(c2cccc(-n3cnc4cc(C(=O)OCCO)ccc43)c2)CC1 (as salt: HCl) | 149 to 154 °C |  |
| COCCOC(=O)c1ccc2c(c1)ncn2-c1cccc(N2CCN(CCOCc3ccccc3)CC2)c1 (as salt: HCl) | 139 to 141 °C |  |
| CCN1CCN(c2cccc(-n3cnc4cc(C(=O)OCCOC)ccc43)c2)CC1 (as salt: HCl) | 166 to 168 °C |  |
| CCOC(=O)N1CCN(Cc2cccc(-n3cnc4cc(-c5ccoc5)ccc43)c2)CC1 (as salt: HCl) | 248 to 250 °C |  |
| CCOC(=O)CN1CCN(c2cccc(-n3cnc4cc(C(=O)OCCOC)ccc43)c2)CC1 (as salt: HCl) [Compound 1b, 2-Methoxyethyl 1-(3-(4-(ethoxy-carbonyl-methyl)-1-piperazinyl)-phenyl)-benzimidazole-5-carboxylate] | 161 to 163 °C |  |
| CC(=O)N1CCN(CCOC(=O)c2cccc(-n3cnc4cc(-c5ccoc5)ccc43)c2)CC1 (as salt: HCl) [Compound 7j, 2-(1-Acetyl-4-piperazinyl)-ethyl 3-(5-(3-furanyl)-1-benzimidazolyl)-benzoate] | 167 to 168 °C |  |
| COCCOC(=O)c1ccc2c(c1)ncn2-c1cccc(N2CCN(C)CC2)c1 (as salt: maleate) | 136 to 137 °C |  |
| COC(=O)c1ccc2c(c1)ncn2-c1cccc(Cn2ccnc2)c1 [Compound 1l, Methyl 1-(3-(1-imidazolylmethyl)-phenyl)-benzimidazole-5-carboxylate] |  | IC50 [1]: 12000 pM; In vivo binding ED50 [2]: 0.75 mg/kg; ED100 [3]: 17 mg/kg; ptz threshold at 30 mg/kg [3]: 120 mg/kg |
| COC(=O)c1cn(-c2cccc(-n3cnc4cc(-c5ccoc5)ccc43)c2)cn1 [Compound 7c, 5-(3-Furanyl)-1-(3-(4-methoxycarbonyl-1-imidazolyl)-phenyl)-benzimidazole] | 221 to 223 °C | IC50 [1]: 700 pM; In vivo binding ED50 [2]: 0.43 mg/kg; ED100 [3]: 20 mg/kg; ptz threshold at 30 mg/kg [3]: 110 mg/kg |
| CCOC(=O)CN1CCN(Cc2cccc(-n3cnc4cc(-c5ccoc5)ccc43)c2)CC1 [Compound 7f, 5-(3-Furanyl)-1-(3-(1-ethoxycarbonylmethyl-4-piperazinylmethyl)-phenyl)-benzimidazole] |  | IC50 [1]: 600 pM; In vivo binding ED50 [2]: 0.17 mg/kg; ED100 [3]: 2.7 mg/kg; ptz threshold at 30 mg/kg [3]: 120 mg/kg |

Second part, led by results:

| melting point | Structure (SMILES) | also measured |
| --- | --- | --- |
| 131 to 132 °C | CC(C)(C)OC(=O)CN1CCN(c2cccc(-n3cnc4cc(-c5ccoc5)ccc43)c2)CC1 |  |
| 90 to 94 °C | CCOC(=O)CN1C(C)CN(c2cccc(-n3cnc4cc(C(=O)OCCOC)ccc43)c2)CC1C (centres unmarked) (as salt: HCl) |  |
| 132 to 134 °C | COCCOC(=O)c1ccc2c(c1)ncn2-c1cccc(-n2cnc(C(=O)OC)c2)c1 (as salt: HCl) |  |
| 202 to 208 °C | CCN1C(C)CN(c2cccc(-n3cnc4cc(C(=O)OCCOC)ccc43)c2)CC1C (centres unmarked) (as salt: HCl) |  |
| 179 to 180 °C | CCN1CC=C(c2cccc(-n3cnc4cc(C(=O)OCCOC)ccc43)c2)CC1 (as salt: HCl) |  |
| 123 to 125 °C | COCCOC(=O)c1ccc2c(c1)ncn2-c1cccc(C2CCN(C)CC2)c1 (as salt: HCl) |  |
| 179 to 202 °C | COC(=O)c1ccc2c(c1)ncn2-c1cccc(N2CCNCC2)c1 (as salt: HCl) |  |
| 218 to 224 °C | COCCOC(=O)c1ccc2c(c1)ncn2-c1cccc(N2CCN(CC(=O)OC(C)(C)C)CC2)c1 (as salt: HCl) |  |
| 191 to 205 °C | COCCOC(=O)c1ccc2c(c1)ncn2-c1cccc(N2CCNCC2)c1 (as salt: HCl) |  |
| 210 to 220 °C | COC(=O)c1ccc2c(c1)ncn2-c1cccc(N2CCN(CC(=O)O)CC2)c1 (as salt: HCl) |  |
| 185 to 186 °C | COCCOC(=O)c1ccc2c(c1)ncn2-c1cccc(N2CCN(Cc3ccc(Cl)s3)CC2)c1 (as salt: HCl) |  |
| 150 to 155 °C | COC(=O)CN1CCN(c2cccc(-n3cnc4cc(C(=O)OCCO)ccc43)c2)CC1 (as salt: HCl) |  |
| 172 to 177 °C | COCCOC(=O)c1ccc2c(c1)ncn2-c1cccc(N2CCN(Cc3ccccc3)CC2)c1 (as salt: HCl) |  |
| 161 to 164 °C | COCCOC(=O)c1ccc2c(c1)ncn2-c1cccc(N2CCN(CC(=O)OC)CC2)c1 (as salt: HCl) |  |
| 268 to 270 °C | NC(=O)CN1CCN(c2cccc(-n3cnc4cc(C(=O)OCCO)ccc43)c2)CC1 (as salt: HCl) |  |
| 153 to 163 °C | COC(=O)c1ccc2c(c1)ncn2-c1cccc(N2CCN(Cc3ccccc3)CC2)c1 (as salt: HCl) |  |
| 196 to 198 °C | COCCOC(=O)c1ccc2c(c1)ncn2-c1cccc(N2CCN(Cc3nnnn3C)CC2)c1 (as salt: HCl) |  |
| 198 to 200 °C | CN1CCCC1COC(=O)c1cccc(-n2cnc3cc(-c4ccoc4)ccc32)c1 (centres unmarked) (as salt: HCl) |  |
